Experiments:
Ileum [1] = test: Inhibition of electrically-stimulated contraction in guinea pig ileum at 15 ug/ml; format: functional; conditions: Cavia porcellus
Ileum [2] = test: Contractile activity in guinea pig ileum at 15 ug/ml relative to histamine; format: functional, Cavia porcellus
Ileum [3] = test: Inhibition of electrically-stimulated contraction in guinea pig ileum at 1200 ug/ml; format: functional; conditions: Cavia porcellus
Ileum [4] = test: Contractile activity in guinea pig ileum at 1200 ug/ml relative to histamine; format: functional, Cavia porcellus
Ileum [5] = test: Contractile activity in guinea pig ileum at 232 ug/ml relative to histamine; format: functional, Cavia porcellus
Ileum [6] = test: Inhibition of electrically-stimulated contraction in guinea pig ileum at 232 ug/ml; format: functional; conditions: Cavia porcellus
Ileum [7] = test: Contractile activity in guinea pig ileum at 200 ug/ml relative to histamine; format: functional, Cavia porcellus
Ileum [8] = test: Inhibition of electrically-stimulated contraction in guinea pig ileum at 200 ug/ml; format: functional; conditions: Cavia porcellus
Ileum [9] = test: Contractile activity in guinea pig ileum at 67 ug/ml relative to histamine; format: functional, Cavia porcellus
Ileum [10] = test: Inhibition of electrically-stimulated contraction in guinea pig ileum at 67 ug/ml; format: functional; conditions: Cavia porcellus
Ileum [11] = test: Inhibition of electrically-stimulated contraction in guinea pig ileum at 50 ug/ml; format: functional; conditions: Cavia porcellus
Ileum [12] = test: Contractile activity in guinea pig ileum at 50 ug/ml relative to histamine; format: functional, Cavia porcellus

Nc1ncnc2c1ncn2[C@@H]1O[C@H](CO)[C@@H](O)[C@H]1O [ADENOSINE] was tested. Which inhibition at 15 µg/mL (Ileum [1]) did it give?
Its inhibition at 15 µg/mL is 85%.

And the Activity (Ileum [2])?
Its Activity is 0%.

What does the source list for Nc1ccn([C@@H]2O[C@H](CO)[C@@H](O)[C@H]2O)c(=O)n1 [CYTIDINE]?
inhibition at 1200 µg/mL (Ileum [3]): 0%; Activity (Ileum [4]): 0%

With Cn1c(=N)ccn([C@H]2C[C@H](O)[C@@H](CO)O2)c1=O as the molecule, how does the Activity (Ileum [5]) read?
The Activity was 60%.

And the inhibition at 232 µg/mL (Ileum [6])?
Its inhibition at 232 µg/mL is 0%.

For N=C(N)NCCC[C@@H]1NC(=O)/C(=C/c2c[nH]c3cc(Br)ccc23)NC1=O [BARETTIN], which inhibition at 15 µg/mL (Ileum [1]) is on record?
The inhibition at 15 µg/mL was 62%.

What about the Activity (Ileum [2]) of the same molecule?
The Activity was 0%.

How did the Activity (Ileum [7]) turn out when O=c1[nH]cnc2c1ncn2[C@@H]1O[C@H](CO)[C@@H](O)[C@H]1O [INOSINE] was run?
The Activity was 0%.

What about the inhibition at 200 µg/mL (Ileum [8]) of the same molecule?
Its inhibition at 200 µg/mL is 23%.

Which results are given for O=c1ccn([C@@H]2O[C@H](CO)[C@@H](O)[C@H]2O)c(=O)[nH]1 [URIDINE]?
inhibition at 1200 µg/mL (Ileum [3]): 83%; Activity (Ileum [4]): 0%

For Cn1c(=N)ccn([C@@H]2O[C@H](CO)[C@@H](O)[C@H]2O)c1=O, which Activity (Ileum [9]) is on record?
The Activity was 60%.

And the inhibition at 67 µg/mL (Ileum [10])?
The inhibition at 67 µg/mL was 0%.

With Nc1ccn([C@H]2C[C@H](O)[C@@H](CO)O2)c(=O)n1 [DOXECITINE] as the molecule, how does the inhibition at 1200 µg/mL (Ileum [3]) read?
The inhibition at 1200 µg/mL was 27%.

What about the Activity (Ileum [4]) of the same molecule?
Its Activity is 0%.

What does the source list for Cn1c(=O)ccn([C@H]2C[C@H](O)[C@@H](CO)O2)c1=O?
inhibition at 50 µg/mL (Ileum [11]): 0%; Activity (Ileum [12]): 0%

Reference: ChEMBL document CHEMBL1151127, “Studies of Swedish Marine Organisms, Part X. Biologically Active Compounds from the Marine Sponge Geodia baretti” (1988)
